The test has as its target T1, human 5HT1A-serotonergic receptor (Homo sapiens, UniProt P08908).
T1 construct: expressed in transfected cells; host or cells: HeLa (human cell line), stably transfected; cell membranes used
T1 sequence (P08908 1-422): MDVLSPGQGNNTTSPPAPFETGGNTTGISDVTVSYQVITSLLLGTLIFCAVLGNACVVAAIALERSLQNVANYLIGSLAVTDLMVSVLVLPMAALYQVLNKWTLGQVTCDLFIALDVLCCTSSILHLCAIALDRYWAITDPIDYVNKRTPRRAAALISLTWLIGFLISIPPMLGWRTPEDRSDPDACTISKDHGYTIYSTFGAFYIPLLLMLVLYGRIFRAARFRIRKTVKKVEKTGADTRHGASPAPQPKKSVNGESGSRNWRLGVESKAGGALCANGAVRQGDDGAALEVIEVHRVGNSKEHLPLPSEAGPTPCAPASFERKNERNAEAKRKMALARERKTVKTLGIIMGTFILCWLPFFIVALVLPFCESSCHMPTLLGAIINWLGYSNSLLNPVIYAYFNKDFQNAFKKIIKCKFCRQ
In words: Radioligand binding to recombinant 5-HT1A receptors. The conditions noted are these: [3H]8-OH-DPAT 1 nM, membranes of HeLa cells with human 5-HT1A receptor; Ki from IC50 by Cheng & Prusoff; read-out: Binding affinity for 5HT1A receptors, Ki. As to the method: Genomic clone G-21 coding for the human 5HT1A-serotonergic receptor was stably transfected in a human cell line (HeLa). HeLa cells were grown as monolayers in Dulbecco's modified Eagle medium (DMEM), containing 10% foetal bovine serum, gentamicin ([…]) and 5% carbon dioxide, at 37° C. The cells were detached from the growth flask at 95% confluence by a cell scraper and were lysed in cold 5 mM Tris and 5 mM EDTA buffer (pH 7.4). The homogenates were centrifuged at 40000×g×20 minutes and the pellets were resuspended in a small volume of cold 5 mM Tris and 5 mM EDTA buffer (pH 7.4) and immediately frozen and stored at −70° C. until use. On the day of experiment, the cell membranes were resuspended in incubation buffer: 50 mM Tris HCl (pH 7.4), 2.5 mM MgCl2, […] (Fargin et al., Nature 335, 358-360, 1988). The membranes were incubated in a final volume of 1 ml for 30 minutes at 30° C. with 1 nM [^3H]8-OH-DPAT, in the absence or presence of the test compounds. Non-specific binding was determined in the presence of 10 μM 5-HT. Incubation was stopped by addition of cold Tris-HC 1 buffer and rapid filtration through a 0.2%-polyethyleneimine-pretreated Whatman-GF/B or Schleicher-&-Schuell-GF52 filter.
The affinity of the tested compounds was evaluated as inhibition of specific binding of the radioligand to 5-HT1A receptors (IC50) by using the non-linear curve-fitting program Allfit (De Lean et al., Am. J. Physiol. 235, E97-E102 (1978). The IC50 value was converted to an affinity constant (Ki) by the equation of Cheng & Prusoff (Cheng Y. C., Prusoff W. H., Biochem. Pharmacol. 22, 3099-3108 (1973)).

Structures are written as SMILES.

With `COc1cc(F)ccc1N1CCN(CC2CCc3cc(-c4c(C)noc4C)ccc3N2C(=O)C2CCCCC2)CC1` (centres unmarked) [Example 64, 1-[1-Cyclohexanecarbonyl-6-(3,5-dimethylisoxazol-4-yl)-1,2,3,4-tetrahydroquinoline-2-ylmethyl]-4-(4-fluoro-2-methoxyphenyl)piperazine], the Ki is 23.9 nM.
The result for `COc1cc(F)ccc1N1CCN(CC2CCc3cccc(C)c3N2C(=O)C2CCCCC2)CC1` (centres unmarked) [Example 67, 1-(1-Cyclohexanecarbonyl-8-methyl-1,2,3,4-tetrahydroquinoline-2-ylmethyl)-4-(4-fluoro-2-methoxyphenyl)piperazine] reads 29.4 nM; that for `CN(C)c1ccc(C(=O)N2c3ccccc3CCC2CN2CCN(c3cccc4[nH]ccc34)CC2)cc1` (centres unmarked) [Example 68A1, 1-[1-(4-Dimethylaminobenzoyl)-1,2,3,4-tetrahydroquinoline-2-ylmethyl]-4-(4-indolyl)piperazine], 23.9 nM.
The result for `O=C(Cc1ccccc1)N1c2ccccc2CCC1CN1CCN(c2cccc3[nH]ccc23)CC1` (centres unmarked) [Example 68A2, 1-(4-Indolyl)-4-[1-(2-phenylacetyl)-1,2,3,4-tetrahydroquinoline-2-ylmethyl]piperazine] reads 13.9 nM; that for `N#Cc1ccc(C(=O)N2c3ccccc3CCC2CN2CCN(c3cccc4[nH]ccc34)CC2)cc1` (centres unmarked) [Example 68A3, 1-[1-(4-Cyanobenzoyl)-1,2,3,4-tetrahydroquinoline-2-ylmethyl]-4-(4-indolyl)piperazine], 7.1 nM; that for `O=C(c1ccccc1Cl)N1c2ccccc2CCC1CN1CCN(c2cccc3[nH]ccc23)CC1` (centres unmarked) [Example 68A4, 1-[1-(2-Chlorobenzoyl)-1,2,3,4-tetrahydroquinoline-2-ylmethyl]-4-(4-indolyl)piperazine], 4.7 nM.
The result for `O=C(c1ccc(Cl)cc1)N1c2ccccc2CCC1CN1CCN(c2cccc3[nH]ccc23)CC1` (centres unmarked) [Example 68A5, 1-[1-(4-Chlorobenzoyl)-1,2,3,4-tetrahydroquinoline-2-ylmethyl]-4-(4-indolyl)piperazine] reads 4 nM; that for `O=C(c1cccc(Cl)c1)N1c2ccccc2CCC1CN1CCN(c2cccc3[nH]ccc23)CC1` (centres unmarked) [Example 68A6, 1-[1-(3-Chlorobenzoyl)-1,2,3,4-tetrahydroquinoline-2-ylmethyl]-4-(4-indolyl)piperazine], 14.2 nM.
For `CC(C)C(=O)N1c2ccccc2CCC1CN1CCN(c2cccc3[nH]ccc23)CC1` (centres unmarked) [Example 68A9, 1-(4-Indolyl)-4-[1-(2-methylpropionyl)-1,2,3,4-tetrahydroquinoline-2-ylmethyl]piperazine], the Ki was 24.6 nM.
As for `CC(C)CC(=O)N1c2ccccc2CCC1CN1CCN(c2cccc3[nH]ccc23)CC1` (centres unmarked) [Example 68A12, 1-(4-Indolyl)-4-[1-(3-methylbutanoyl)-1,2,3,4-tetrahydroquinoline-2-ylmethyl]piperazine], the figure is 2.6 nM; as for `O=C(c1cccs1)N1c2ccccc2CCC1CN1CCN(c2cccc3[nH]ccc23)CC1` (centres unmarked) [Example 68A19, 1-(4-Indolyl)-4-[1-(2-thienylcarbonyl)-1,2,3,4-tetrahydroquinoline-2-ylmethyl]piperazine], 4.1 nM.
The result for `O=C(c1ccsc1)N1c2ccccc2CCC1CN1CCN(c2cccc3[nH]ccc23)CC1` (centres unmarked) [Example 68A20, 1-(4-Indolyl)-4-[1-(3-thienylcarbonyl)-1,2,3,4-tetrahydroquinoline-2-ylmethyl]piperazine] reads 30.7 nM; that for `O=C(c1ccc(C(F)(F)F)cc1)N1c2ccccc2CCC1CN1CCN(c2cccc3[nH]ccc23)CC1` (centres unmarked) [Example 68A23, 1-(4-Indolyl)-4-[1-(4-trifluoromethylbenzoyl)-1,2,3,4-tetrahydroquinoline-2-ylmethyl]piperazine], 42.8 nM; that for `O=C(CCc1ccccc1)N1c2ccccc2CCC1CN1CCN(c2cccc3[nH]ccc23)CC1` (centres unmarked) [Example 68A24, 1-(4-Indolyl)-4-[1-(3-phenylpropionyl)-1,2,3,4-tetrahydroquinoline-2-ylmethyl]piperazine], 32.9 nM.
With `O=C(c1c(F)cccc1F)N1c2ccccc2CCC1CN1CCN(c2cccc3[nH]ccc23)CC1` (centres unmarked) [Example 68A28, 1-[1-(2,6-Difluorobenzoyl)-1,2,3,4-tetrahydroquinoline-2-ylmethyl]-4-(4-indolyl)piperazine], the Ki was 34.4 nM.
As for `O=C(Cc1ccc(Cl)cc1)N1c2ccccc2CCC1CN1CCN(c2cccc3[nH]ccc23)CC1` (centres unmarked) [Example 68A30, 1-[1-[2-(4-Chlorophenyl)acetyl]-1,2,3,4-tetrahydroquinoline-2-ylmethyl]-4-(4-indolyl)piperazine], the figure is 23.8 nM; as for `O=C(Cc1ccc(C(F)(F)F)cc1)N1c2ccccc2CCC1CN1CCN(c2cccc3[nH]ccc23)CC1` (centres unmarked) [Example 68A31], 41.8 nM; as for `O=C(c1ccccn1)N1c2ccccc2CCC1CN1CCN(c2cccc3[nH]ccc23)CC1` (centres unmarked) [Example 68A32, 1-(4-Indolyl)-4-[1-(2-pyridylcarbonyl)-1,2,3,4-tetrahydroquinoline-2-ylmethyl]piperazine], 19.4 nM.
Consider `O=C(c1cccnc1)N1c2ccccc2CCC1CN1CCN(c2cccc3[nH]ccc23)CC1` (centres unmarked) [Example 68A33, 1-(4-Indolyl)-4-[1-(3-pyridylcarbonyl)-1,2,3,4-tetrahydroquinoline-2-ylmethyl]piperazine], for which the Ki was found to be 13.3 nM.
The result for `O=C(c1ccncc1)N1c2ccccc2CCC1CN1CCN(c2cccc3[nH]ccc23)CC1` (centres unmarked) [Example 68A34, 1-(4-Indolyl)-4-[1-(4-pyridylcarbonyl)-1,2,3,4-tetrahydroquinoline-2-ylmethyl]piperazine] reads 24.9 nM; that for `CC(C)(C)C(=O)N1c2ccccc2CCC1CN1CCN(c2cccc3[nH]ccc23)CC1` (centres unmarked) [Example 68A36, 1-[1-(2,2-Dimethylpropionyl)-1,2,3,4-tetrahydroquinoline-2-ylmethyl]-4-(4-indolyl)piperazine], 10.7 nM.
For `CC(=O)N1CCC(C(=O)N2c3ccccc3CCC2CN2CCN(c3cccc4[nH]ccc34)CC2)CC1` (centres unmarked) [Example 68A38, 1-[1-(1-Acetylpiperidine-4-carbonyl)-1,2,3,4-tetrahydroquinoline-2-ylmethyl]-4-(4-indolyl)piperazine], the Ki turned out to be 24.4 nM.
With `O=C(Cc1cccs1)N1c2ccccc2CCC1CN1CCN(c2cccc3[nH]ccc23)CC1` (centres unmarked) [Example 68A39, 1-(4-Indolyl)-4-[1-[2-(2-thienylacetyl)]-1,2,3,4-tetrahydroquinoline-2-ylmethyl]piperazine], the inhibitory constant (Ki) is 6.8 nM.
For `O=C(Cc1ccsc1)N1c2ccccc2CCC1CN1CCN(c2cccc3[nH]ccc23)CC1` (centres unmarked) [Example 68A40, 1-(4-Indolyl)-4-[1-[2-(3-thienylacetyl)]-1,2,3,4-tetrahydroquinoline-2-ylmethyl]piperazine], the Ki is 7.5 nM.
For the molecule `O=C(CCc1cccnc1)N1c2ccccc2CCC1CN1CCN(c2cccc3[nH]ccc23)CC1` (centres unmarked) [Example 68A41, 1-(4-Indolyl)-4-[1-[3-(3-pyridylpropionyl)]-1,2,3,4-tetrahydroquinoline-2-ylmethyl]piperazine], the Ki was determined as 49.1 nM.
As for `O=C(COc1ccccc1)N1c2ccccc2CCC1CN1CCN(c2cccc3[nH]ccc23)CC1` (centres unmarked) [Example 68A42, 1-(4-Indolyl)-4-[1-(2-phenoxyacetyl)-1,2,3,4-tetrahydroquinoline-2-ylmethyl]piperazine], the figure is 19.8 nM; as for `COc1ccc(CC(=O)N2c3ccccc3CCC2CN2CCN(c3cccc4[nH]ccc34)CC2)cc1` (centres unmarked) [Example 68A43, 1-(4-Indolyl)-4-[1-[2-(4-methoxyphenylacetyl)]-1,2,3,4-tetrahydroquinoline-2-ylmethyl]piperazine], 42.7 nM; as for `O=C(COCc1ccccc1)N1c2ccccc2CCC1CN1CCN(c2cccc3[nH]ccc23)CC1` (centres unmarked) [Example 68A44, 1-(4-Indolyl)-4-[1-(2-phenylmethoxyacetyl)-1,2,3,4-tetrahydroquinoline-2-ylmethyl]piperazine], 20.7 nM.
As for `O=C(Cc1ccccc1Cl)N1c2ccccc2CCC1CN1CCN(c2cccc3[nH]ccc23)CC1` (centres unmarked) [Example 68A45, 1-[1-[2-(2-Chlorophenylacetyl)]-1,2,3,4-tetrahydroquinoline-2-ylmethyl]-4-(4-indolyl)piperazine], the figure is 8.6 nM.

For the origin of these results see US20030162777A1, “Novel N-acylated heterocycles” (Recordati S.A., priority 2001, published 2003).
